Assays:
[1] = stability in PBS solution over 24 h; type: physicochemical; conditions: PBS pH 7.4, room temperature, after 24 h
[2] = system: mOTR; design: method as in PMID 30199637; conditions: mouse receptor, cited from earlier work

## Cc1cc(C(=O)N2Cc3cnn(C)c3Nc3ccccc32)ccc1CNC(=O)N1CCC[C@H]1C(=S)N(C)C [LIT-001]
[1]
  degradation in PBS solution: No degradation
[2]; agonist
  EC50: 18 nM
[2]; efficacy
  Emax (mOTR): 95%

— PMC7033278, “A Nonpeptide Oxytocin Receptor Agonist for a Durable Relief of Inflammatory Pain” (Scientific Reports, 2020)
